According to US9938257B2 (Sunshine Lake Pharma Co., Ltd., priority 2015, dated 2018):

Tests used:
[1] = Compound stability in human liver microsomes; format: in vitro ADME; conditions: pH 7.4; for half-life at 5 μM: human liver microsomes 0.5 mg protein/mL, compound 5 μM, NADPH 1.0 mM, 37° C., read-out: Human T1/2; for CLint scaled at 5 μM: human liver microsomes, in vivo CLint extrapolated
Experimental: (§1) Human or rat liver microsomes incubations were conducted in duplicate in polypropylene tubes. The typical incubation mixtures consisted of human or rat liver microsomes (0.5 mg protein/mL), compounds of interest (5 μM) and NADPH (1.0 mM) in a total volume of 200 μL potassium phosphate buffer (PBS, 100 mM, pH 7.4). Compounds were dissolved in DMSO and diluted with PBS such that the final concentration of DMSO was 0.05%. The enzymatic reactions were commenced with the addition of protein after a 3-min preincubation and incubated in a water bath open to the air at 37° C. Reactions were terminated at various time points (0, 5, 10, 15, 30, 60 min) by adding equal volume of ice-cold acetonitrile. The samples were stored at −80° C. until LC/MS/MS assays.
(§2) The concentrations of compounds in the incubation mixtures of human or rat liver microsomes were determined by a LC/MS/MS method. The ranges of the linearity in the concentration range were determined for each tested compounds.
(§3) A parallel incubation was performed using denatured microsomes as the negative control, and reactions were terminated at various time points (0, 15, 60 min) after incubation at 37° C.
(§4) Dextromethorphan (70 μM) was selected as the positive control, and reactions were terminated at various time points (0, 5, 10, 15, 30, 60 min) after incubation at 37° C. Both positive and negative control samples were included in each assay to ensure the integrity of the microsomal incubation system.
(§5) The concentrations of compounds in human or rat liver microsome incubations were plotted as a percentage of the relevant zero time point control for each reaction. The in vivo CLint were extrapolated (ref.: Naritomi, Y.; Terashita, S.; Kimura, S.; Suzuki, A.; Kagayama, A.; and Sugiyama, Y.; Prediction of human hepatic clearance from in vivo animal experiments and in vitro metabolic studies with liver microsomes from animals and humans. Drug Metab. Dispos., 2001, 29: 1316-1324).

[2] = Compound stability in rat liver microsomes; format: in vitro ADME; conditions: pH 7.4; for half-life at 5 μM: rat liver microsomes 0.5 mg protein/mL, compound 5 μM, NADPH 1.0 mM, 37° C., read-out: Rat T1/2; for CLint scaled at 5 μM: rat liver microsomes, in vivo CLint extrapolated
Experimental: as §1, §2, §3, §4, §5

[3] = Pharmacokinetics after intravenous and oral administration in rats; format: in vivo; conditions: for F: oral bioavailability, iv dose 1 mg/kg; for AUC(0-t) / half-life / Vd: rat, plasma; for Vd: read-out: Vss
Experimental: The compounds disclosed herein are assessed in pharmacokinetic studies in mice, rats, dogs or monkeys. The compounds are administered as a water solution, 2% HPMC+1% TWEEN®80 in water solution, 5% DMSO+5% solutol in saline, 4% MC suspension or capsule. For the intravenous administration, the animals are generally given at 0.5, 1 or 2 mg/kg dose. For the oral (p.o.) dosing, mice and rats are generally given 0.5, 1, 5 or 10 mg/kg dose, and dogs and monkeys are generally given 10 mg/kg dose. The blood samples (0.3 mL) are drawn at 0.25, 0.5, 1.0, 2.0, 3.0, 4.0, 6.0, 8.0, 12 and 24 h time points or 0.083, 0.25, 0.5, 1.0, 2.0, 4.0, 6.0, 8.0 and 24 h time points and centrifuged at 3,000 or 4000 rpm for 2 to 10 min. The plasma solutions are collected, and stored at −20° C. or −70° C. until analyzed by LC/MS/MS as described above.

[4] = target: Aurora-A (h) (Homo sapiens (Human), UniProt O14965); assay: Aurora-A (h) kinase activity assay; format: biochemical
Experimental: The above assay procedure can be used to determine the IC50 for inhibition and/or the inhibition constant, Ki. The IC50 is defined as the concentration of compound required to reduce the enzyme activity by 50% under the condition of the assay. The IC50 value is estimated by preparing a 10 point curve using a ½ log dilution series (for example, a typical curve may be prepared using the following compound concentrations: 3 μM, 1 μM, 0.3 μM, 0.1 μM, 0.03 μM, 0.01 μM, 0.003 μM, 0.001 μM, 0.0003 μM and 0 μM).
Aurora-A (h) is incubated with 8 mM MOPS pH 7.0, 0.2 mM EDTA, 200 μM LRRASLG (Kemptide), 10 mM MgAcetate and [γ-^33P-ATP] (specific activity approx. 500 cpm/pmol, concentration as required). The reaction is initiated by the addition of the MgATP mix. After incubation for 40 minutes at room temperature, the reaction is stopped by the addition of 3% phosphoric acid solution. 10 μL of the reaction is then spotted onto a P30 filtermat and washed three times for 5 minutes in 75 mM phosphoric acid and once in methanol prior to drying and scintillation counting.
The kinase assays described herein were performed at Millipore UK Ltd, Dundee Technology Park, Dundee DD2 1SW, UK.

Chain of Aurora-A (h) (O14965 whole entry): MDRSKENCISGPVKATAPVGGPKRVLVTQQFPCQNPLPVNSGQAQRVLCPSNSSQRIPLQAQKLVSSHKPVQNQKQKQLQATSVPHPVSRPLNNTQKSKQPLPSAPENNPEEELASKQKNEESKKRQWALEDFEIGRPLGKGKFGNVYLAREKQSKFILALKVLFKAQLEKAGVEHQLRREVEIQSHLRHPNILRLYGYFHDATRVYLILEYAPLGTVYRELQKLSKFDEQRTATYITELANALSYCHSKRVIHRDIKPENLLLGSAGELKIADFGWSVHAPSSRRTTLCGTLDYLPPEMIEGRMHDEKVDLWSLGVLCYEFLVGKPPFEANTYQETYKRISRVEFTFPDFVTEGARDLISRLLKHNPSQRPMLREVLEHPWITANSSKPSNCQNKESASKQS

Structure (SMILES) | half-life at 5 μM [1] [min] | CLint scaled at 5 μM [1] [mL/min/kg] | half-life at 5 μM [2] [min] | CLint scaled at 5 μM [2] [mL/min/kg] | Cl/F ([3]; iv dosing, dose 1 mg/kg) [mL/min/kg] | F [3] [%] | AUC(0-t) ([3]; iv dosing, dose 1 mg/kg) [ng·h/mL] | half-life ([3]; iv dosing, dose 1 mg/kg) [min] | Vd ([3]; iv dosing, dose 1 mg/kg) [L/kg] | Clearance (CL) after iv dosing ([3]; iv dosing, dose 1 mg/kg) [mL/min/kg] | IC50 [4] [nM]
Cn1cc(Nc2ncc(Cl)c(NC3CCC4(CC3)CCN(S(=O)(=O)C3CC3)CC4)n2)cn1 | 61 | 28.5 | 30 | 82.7 | 46.3 | 64.4 | 363 | 37.2 | 2.07 | – | –
CC(=O)N1CC2CC(Nc3nc(Nc4cnn(-c5ccccn5)c4)ncc3Cl)CC2C1 (centres unmarked) [Ex. 8, 1-(5-((5-chloro-2-((1-(pyridin-2-yl)-1H-pyrazol-4-yl)amino)pyrimidin-4-yl)amino)hexahydrocyclopenta[c]pyrrol-2(1H)-yl)ethanone] | 31.4 | 55.3 | 16.2 | 153 | – | 36.9 | 558 | 33.6 | 1.55 | 31 | –
Cn1cc(Nc2ncc(Cl)c(NC3CC4CN(S(=O)(=O)C5CC5)CC4C3)n2)cn1 (centres unmarked) [Ex. 13, 5-chloro-N^4-(2-(cyclopropylsulfonyl)octahydrocyclopenta[c]pyrrol-5-yl)-N^2-(1-methyl-1H-pyrazol-4-yl)pyrimidine-2,4-diamine] | 33.1 | 52.5 | 5.48 | 454 | – | – | – | – | – | – | 5
Cn1cc(Nc2ncc(Cl)c(NC3CCC4(CC3)CCN(CC(C)(C)O)CC4)n2)cn1 [Ex. 21, 1-(9-((5-chloro-2-((1-methyl-1H-pyrazol-4-yl)amino)pyrimidin-4-yl)amino)-3-azaspiro[5.5]undecan-3-yl)-2-methylpropan-2-ol] | 404 | 4.3 | 62.9 | 39.5 | – | 118.2 | 147 | 87.6 | 11.9 | 109 | –
Cn1cc(Nc2ncc(Cl)c(NC3CCC4(CC3)CCN(C(=O)C3CC3)CC4)n2)cn1 [Ex. 22, (9-((5-chloro-2-((1-methyl-1H-pyrazol-4-yl)amino)pyrimidin-4-yl)amino)-3-azaspiro[5.5]undecan-3-yl)(cyclopropyl)methanone] | 65.7 | 26.5 | 3.33 | 745 | – | 84.6 | 746 | 33.6 | 1.21 | 22.3 | –
Cn1cc(Nc2ncc(Cl)c(NC3CC4CN(C(=O)Nc5ccccc5)CC4C3)n2)cn1 (centres unmarked) [Ex. 28, 5-((5-chloro-2-((1-methyl-1H-pyrazol-4-yl)amino)pyrimidin-4-yl)amino)-N-phenylhexahydrocyclopenta[c]pyrrole-2(1H)-carboxamide] | 24.2 | 72 | 3.6 | 690 | – | 42.0 | 168 | 22.8 | 1.99 | 99.2 | –
Cn1cc(Nc2ncc(Cl)c(NC3CC4CN(C(=O)N5CCOCC5)CC4C3)n2)cn1 (centres unmarked) [Ex. 29, (5-((5-chloro-2-((1-methyl-1H-pyrazol-4-yl)amino)pyrimidin-4-yl)amino)hexahydrocyclopenta[c]pyrrol-2(1H)-yl)(morpholino)methanone] | 43.2 | 40.2 | 19.8 | 126 | – | 102.8 | 413 | 21 | 1.19 | 40.3 | –
Cn1cc(Nc2ncc(Cl)c(NC3CC4CN(c5ccc(C#N)nn5)CC4C3)n2)cn1 (centres unmarked) [Ex. 30, 6-(5-((5-chloro-2-((1-methyl-1H-pyrazol-4-yl)amino)pyrimidin-4-yl)amino)hexahydrocyclopenta[c]pyrrol-2(1H)-yl)pyridazine-3-carbonitrile] | 24.9 | 69.8 | 8.07 | 308 | – | 268.4 | 1140 | 36.6 | 0.71 | 15.5 | –
Cn1cc(Nc2ncc(Cl)c(NC3CC4CN(S(=O)(=O)C(C)(C)C)CC4C3)n2)cn1 (centres unmarked) [Ex. 31, N^4-(2-(tert-butylsulfonyl)octahydrocyclopenta[c]pyrrol-5-yl)-5-chloro-N^2-(1-methyl-1H-pyrazol-4-yl)pyrimidine-2,4-diamine] | – | – | – | – | – | – | – | – | – | – | 50
O=C(NC1CC1)N1CC2CC(Nc3nc(Nc4cnn(C5CCNC5)c4)ncc3Cl)CC2C1 (centres unmarked) [Ex. 40, 5-((5-chloro-2-((1-(pyrrolidin-3-yl)-1H-pyrazol-4-yl)amino)pyrimidin-4-yl)amino)-N-cyclopropylhexahydrocyclopenta[c]pyrrole-2(1H)-carboxamide] | – | – | – | – | – | – | – | – | – | – | 12
CC(O)Cn1cc(Nc2ncc(Cl)c(NC3CC4CN(C(=O)NC5CC5)CC4C3)n2)cn1 (centres unmarked) [Ex. 41, 5-((5-chloro-2-((1-(2-hydroxypropyl)-1H-pyrazol-4-yl)amino)pyrimidin-4-yl)amino)-N-cyclopropylhexahydrocyclopenta[c]pyrrole-2(1H)-carboxamide] | 73.5 | 23.7 | 43.7 | 56.8 | – | – | – | – | – | – | 19
CC(O)Cn1cc(Nc2nccc(NC3CC4CN(C(=O)NC5CC5)CC4C3)n2)cn1 (centres unmarked) [Ex. 42, N-cyclopropyl-5-((2-((1-(2-hydroxypropyl)-1H-pyrazol-4-yl)amino)pyrimidin-4-yl)amino)hexahydrocyclopenta[c]pyrrole-2(1H)-carboxamide] | 153 | 11.3 | 375 | 6.6 | – | – | – | – | – | – | –
CC(C)(O)Cn1cc(Nc2ncc(Cl)c(NC3CC4CN(S(=O)(=O)NC5CC5)CC4C3)n2)cn1 (centres unmarked) [Ex. 43, 5-((5-chloro-2-((1-(2-hydroxy-2-methylpropyl)-1H-pyrazol-4-yl)amino)pyrimidin-4-yl)amino)-N-cyclopropylhexahydrocyclopenta[c]pyrrole-2(1H)-sulfonamide] | – | – | – | – | – | – | – | – | – | – | 9
CC(=O)N1CC2CC(CC#N)(Nc3nc(Nc4cnn(C)c4)ncc3Cl)CC2C1 (centres unmarked) [Ex. 48, 2-(2-acetyl-5-((5-chloro-2-((1-methyl-1H-pyrazol-4-yl)amino)pyrimidin-4-yl)amino)octahydrocyclopenta[c]pyrrol-5-yl)acetonitrile] | 310 | 5.6 | 100 | 24.8 | – | 40.7 | 485 | 43.2 | 0.81 | 34.7 | –
